According to patent publication US6451576B1, “Sesquiterpene synthases from grand fir (Abies grandis), and methods of use” (Washington State University Research Foundation, priority 1998, dated 2002):

Target: T1, δ-selinene synthase (SEQ ID No:20) (Abies grandis, UniProt O64404)
T1 construct: made in house; host or cells: E. coli XL1-Blue/pGAG4 or E. coli BL21(DE3)/pSBAG4
T1 sequence (O64404 1-581): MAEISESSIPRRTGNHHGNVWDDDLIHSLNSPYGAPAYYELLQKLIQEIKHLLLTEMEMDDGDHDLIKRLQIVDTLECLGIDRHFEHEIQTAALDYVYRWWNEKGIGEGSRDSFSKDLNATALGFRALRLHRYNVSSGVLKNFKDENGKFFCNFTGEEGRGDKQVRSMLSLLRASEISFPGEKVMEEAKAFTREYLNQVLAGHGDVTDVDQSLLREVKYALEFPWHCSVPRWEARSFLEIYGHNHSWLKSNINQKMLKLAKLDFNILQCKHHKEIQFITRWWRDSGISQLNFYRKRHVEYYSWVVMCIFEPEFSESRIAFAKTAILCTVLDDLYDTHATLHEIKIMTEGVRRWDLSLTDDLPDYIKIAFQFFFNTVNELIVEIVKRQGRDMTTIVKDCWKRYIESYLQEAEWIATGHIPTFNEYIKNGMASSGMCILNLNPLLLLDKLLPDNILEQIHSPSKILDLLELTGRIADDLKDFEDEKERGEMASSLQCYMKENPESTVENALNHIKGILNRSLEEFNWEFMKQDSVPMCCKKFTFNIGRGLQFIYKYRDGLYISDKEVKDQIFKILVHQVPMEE
Assay: Kinetic parameters, metal ion requirement and substrate specificity of recombinant δ-selinene synthase
Assay type: biochemical
Protocol: The assay for recombinant sesquiterpene synthase (cyclase) activity was performed in 1 ml of buffer (extraction buffer without MnCl2 or the polymeric adsorbents) containing 3.5 μM [1-^3H]farnesyl diphosphate and the total protein extracted from a 5 ml bacterial culture to produce 10^5-10^6 dpm of product in 2 h at 31° C. The incubation mixture was overlaid with 1 ml pentane to trap volatile products. After incubation, the reaction mixture was extracted with pentane (3×1 ml) and the combined extract was passed through a MgSO4-silica gel column to provide the terpene hydrocarbon fractions as before. The columns were subsequently eluted with 3×1 ml of ether to collect any oxygenated products, and an aliquot of each fraction was taken for liquid scintillation counting to determine conversion rate. The monoterpene synthase and diterpene synthase activity assays were similarly performed as described in detail elsewhere (LaFever, R. E., et al., (1994) Arch. Biochem. Biophys. 313, 139-149; Bohlmann, J., et al., (1997) J. Biol. Chem. 272, 21784-21792; Lewinsohn, E., et al., (1991) Plant Physiol. 96, 38-43).
The substrate specificity and other kinetic. parameters of γ-humulene synthase (SEQ ID No:24) and δ-selinene synthase (SEQ ID No:20) were investigated in order to confirm the identification and classification of these enzymes. […] Neither of these sesquiterpene synthases requires K^+ or other monovalent cation for activity.
Substrate specificity of δ-selinene synthase (SEQ ID No:20) and γ-humulene synthase (SEQ ID No:24) was evaluated by comparing farnesyl diphosphate (C15) to geranyl diphosphate (C10) and geranylgeranyl diphosphate (C20) at saturation as precursors of the respective terpene olefins. […] The identities of the monoterpene products produced by the sesquiterpene synthases were determined by GLC-MS and are set forth in FIG. 4.

Row | SMILES | olefin formation from substrate at saturation, compared with farnesyl diphosphate
1 | CC(C)=CCC/C(C)=C/CC/C(C)=C/CC/C(C)=C/COP(=O)(O)OP(=O)(O)O [geranylgeranyl diphosphate, reference compound] | failed to generate detectable olefinic products
2 | CC(C)=CCC/C(C)=C/COP(=O)(O)OP(=O)(O)O [geranyl diphosphate, reference compound] | roughly half the rate
